Results as given in article PMC6656724 (Communications Biology, 2019).
Converted amounts (≈) assume the structure as drawn. “Also recorded” adds a separate entry of the source. Read-outs that look alike come from different tables or passages of the source.

Assays:
[1] = Mouse brain penetration study; format: in vivo, female C57BL6 mice; details: for In blood / In brain: single mice, analyte inhibitor 1 (also after prodrugs) or 1h
Protocol: Inhibitor 1 (and prodrugs 1a, 1b, 1c and 1d) was dosed as a bolus solution intravenously at 1 mg free base/kg (dose volume: 5 mL/kg; dose vehicle: 5% DMSO; 95% saline (inhibitor 1) or 5% DMSO; 40% PEG400; 55% MilliQ H2O (prodrugs 1a, 1b, 1c and 1d)) to female C57BL6 mice (n = 6). At 5 min and 60 min following intravenous bolus injection of test compound, mice (n = 3/timepoint) were placed under terminal anaesthesia with isofluorane. A blood sample was taken by cardiac puncture, the […] decapitated and the brain removed. Brain weight was noted and each brain homogenised with two volumes of methanol (2 mL/g brain). Each blood sample was diluted with distilled water (1:10). Diluted blood and the brain homogenates were then stored frozen until preparation and analysis by UPLC-MS/MS. For each mouse at each timepoint for 1, the concentration in brain (ng/g) was divided by the concentration in blood (ng/mL) to give a brain:blood ratio. The mean value obtained was quoted. For prodrugs 1a to 1d, only the concentration of 1 in blood (ng/mL) and brain (ng/g) was reported.
A rapid and sensitive ultra-performance chromatography/tandem mass spectrometry (UPLC-MS/MS) method was developed and validated for the determination of inhibitor 1 and prodrug 1b (rat only). Chromatographic analysis was conducted on a Waters Acquity™ UPLC system. Chromatographic separation was performed with an Acquity™ UPLC BEH C18 column (50 × 2.1 mm, 1.7 µm, 130Å; Waters Corp.) maintained at 40 °C in a column oven. The mobile phase consisted of water with 0.01% formic acid and ACN with 0.01 % formic acid and it was delivered at a flow rate of 0.6 mL/min under gradient eluent conditions within an analysis cycle time of 3 min. The mass detection was conducted on a Waters Xevo™ TQs mass spectrometer equipped with a ScanWave™ technology. Quantitation of the analyte was performed in electrospray positive ionisation mode (ESI^+) using multiple reaction monitoring. The optimised fragmentation transition was m/z = 270.17 → 196.19 (mouse) or m/z = 270.17 → 223.76 (rat) for inhibitor 1 and m/z = 297.83 → 195.74 for prodrug 1b (rat).
Sample extraction for blood and brain homogenate was by protein precipitation (1:3 or 1:6) using ACN containing suitable internal standard. Extracts were vortexed followed by centrifugation (2800 rpm for 10 min). An aliquot of each supernatant was then diluted two-fold in distilled water ready for analysis by UPLC-MS/MS.
The weighted 1/x^2 calibration line was linear in the dynamic range of 1–5000 ng/mL for inhibitor 1 and 1–1000 ng/mL for prodrug 1b with a correlation coefficient (r^2) > 0.99 (inhibitor 1) or 0.98 (prodrug 1b). The quality control samples (QC) were prepared by using the same spiking scheme as the calibration samples and up to four different target concentration brain levels: 2 ng/mL (LQC), 40 ng/mL (MQC), 100 ng/mL (HQC) and 2000 ng/mL. Data collection, peak integration and calculations were performed using MassLynx software, version 2.1.

[2] = system: K562 cells; test: Competition assay for uptake of riboflavin; format: cell-based, Human; design: key to Mean FL2-A, compound only: relative fluorescence units; details: for Mean FL2-A, compound + riboflavin (RF): 1 µM riboflavin plus 100 µM compound; for Inhibition of riboflavin uptake: 1 µM riboflavin; for Inhibition of riboflavin uptake / Mean FL2-A, compound only: compound 100 µM
Protocol: Riboflavin transporters are equilibrative rather than concentrative, and the uptake of the inhibitors would be hard to measure directly. To assess whether the KMO inhibitors were substrates for riboflavin transporters, we assessed their ability to compete with riboflavin for uptake into cells. Riboflavin is intensely fluorescent, and is taken up in human cells by three main transporters SLC52A1, SLC52A2 and SLC52A3[28]. […] Consequently, we incubated cells with 1 μM riboflavin in the absence and presence of the various KMO inhibitors. There was a background fluorescence of some 100 relative fluorescence units. […] The data are summarised in Fig. 3c, and are consistent with the view that at least some of the KMO inhibitor uptake is likely to go via riboflavin transporters.
Supplementary Figure 15. A. Uptake of riboflavin into K562 cells. K562 cells were suspended in Dulbecco's phosphate-buffered saline (DPBS) supplemented with 5 mM glucose + 1 % fetal bovine serum (FBS) at a density of 0.5 x 10^6 cells/mL.
Compounds were added to Eppendorf tubes and DMSO removed through drying (vacuum centrifuge). Riboflavin was present at 1 µM and inhibitor 1 or prodrugs at 100 µM. 500 µL cells were added to Eppendorf tubes (containing the compound(s) of interest) and fluorescence measured immediately (excitation 488 nm, emission 525 ± 25nm) in a SONY SH800 flow cytometer over 300 s. Cells were maintained at 37 ℃ throughout in a water bath. Each symbol is the mean fluorescence of ~30 cells observed over a period of 1s. Purple, 1 µM riboflavin only; Red, 100 µM compound only; Blue, 1 µM riboflavin plus 100 µM compound; Green, no additions (control).
Note that the external concentration of riboflavin was rather critical, as the riboflavin transporters also catalyse exchange reactions with their various substrates. B.
Structures of KMO inhibitors and prodrugs and riboflavin, and their maximum common substructures (shown as a blue oval on 1). C. Gating strategy employed in this assay. Gate applied to K562 cell population is marked with a black line. SSC, side scatter, FSC, Forward scatter.
(1 picture or pasted object on this page, not shown here)

[3] = Stability in rat hepatocytes
Protocol: Rat hepatocyte compound stability assays were performed using cryopreserved vials of rat cryopreserved hepatocytes (Life Technologies), which were thawed according to manufacturer’s instructions and resuspended in Williams Medium E (WME) containing cell maintenance supplement pack (CM4000, Life
Technologies). Hepatocytes were incubated in suspension (0.5 million cells/mL) in 48 well non-collagen coated cell culture plates for 10 minutes at 37 °C, 5%
CO2. Upon addition of an equal volume of supplemented WME containing 1 mM test compound, an aliquot of incubation solution was removed to acetonitrile containing internal standard (final concentration 0.5 mM test compound and a cell density of 0.25 million cells/mL). Similarly, aliquots were removed at 3,6,9,15,30,45,60,90 and
100 mL of 80:20 water:acetonitrile was added to all samples and the analysis plate was centrifuged for 10 minutes at room temperature prior to injection and analysis of samples by UPLC-MS/MS using a Xevo TQs micro (Waters corporation, USA). XLfit (IDBS, UK) was used to calculate the exponential decay and consequently the rate constant (k) from the ratio of peak area of test compound to internal standard at each timepoint. The rate of intrinsic clearance (CLi) was then
1.10 Rat hepatocyte stability […]
internal standard at each timepoint. The calculated hepatocyte intrinsic clearance […]

[4] = biological target: T1, PfKMO (Pseudomonas fluorescens, UniProt Q84HF5, C252S/C461S); test: Stopped-flow reduction of flavin cofactor by NADPH; format: biochemical; details: for Reduction rate of flavin cofactor: PfKMO with saturating ligand, 2 mM NADPH, 25 °C, anaerobic
T1 construct: made in house; host or cells: E. coli BL21 (DE3)
Protocol: The reduction rate of the flavin cofactor by NADPH was measured using a stopped-flow spectrophotometer (Applied Photophysics Ltd), which was housed in an anaerobic glovebox (Belle Technology). […] The reduction of the flavin was monitored by the decrease in the absorbance of the flavin at 450 nm and transients were fitted to either double or triple exponentials.
Supplementary Figure 13. Reduction of flavin cofactor by NADPH in the presence and absence of ligands. Anaerobic mixtures of 10 µM PfKMO with or without ligand were mixed against anaerobic 2 mM NADPH on a stopped-flow spectrophotometer at 25℃. a, 10 µM PfKMO mixed with 2 mM NADPH; b, 10 µM

[5] = Kinetic solubility in PBS, pH 7.4 (2% DMSO); format: physicochemical; details: for solubility at 2 h: PBS with 2% DMSO, pH 7.4, aqueous buffer, kinetic from dmso stock, PBS, pH 7.4 (2% DMSO)

T1 sequence (Q84HF5 whole entry C252S/C461S): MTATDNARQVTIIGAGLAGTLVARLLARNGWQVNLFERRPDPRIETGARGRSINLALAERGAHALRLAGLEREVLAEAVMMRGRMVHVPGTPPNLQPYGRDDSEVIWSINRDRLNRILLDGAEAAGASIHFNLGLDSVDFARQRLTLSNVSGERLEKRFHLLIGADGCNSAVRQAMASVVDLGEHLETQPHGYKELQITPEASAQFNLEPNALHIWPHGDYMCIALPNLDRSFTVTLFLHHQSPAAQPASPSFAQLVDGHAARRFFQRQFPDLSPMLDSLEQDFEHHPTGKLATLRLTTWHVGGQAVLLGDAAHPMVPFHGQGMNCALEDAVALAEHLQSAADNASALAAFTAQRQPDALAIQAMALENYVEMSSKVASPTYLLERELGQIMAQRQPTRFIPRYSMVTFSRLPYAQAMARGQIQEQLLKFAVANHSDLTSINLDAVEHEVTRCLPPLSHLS

Row | SMILES | Mean FL2-A, compound + riboflavin (RF) ([2]; time 1) | Mean FL2-A, compound + riboflavin (RF) ([2]; time 2) | Mean FL2-A, compound + riboflavin (RF) ([2]; time 3) | Inhibition of riboflavin uptake [2] | Mean FL2-A, compound only ([2]; time 1) | Mean FL2-A, compound only ([2]; time 2) | Mean FL2-A, compound only ([2]; time 3) | In brain ([1]; mouse, 1 mg/kg i.v., 60 min) | solubility at 2 h ([5]; read-out: Solubility Mean) [µM] | solubility at 2 h ([5]; read-out: Solubility n=1) [µM] | solubility at 2 h ([5]; read-out: Solubility n=2) [µM] | also measured
1 | COC(=O)CN1C(=O)COc2cc(C)c(Cl)c(C)c21 [1a] | 66.6886 | 77.0559 | 76.3441 | inhibit riboflavin uptake | 62.8068 | 65.3939 | 65.9534 |  |  |  |  | In blood ([1]; mouse, 1 mg/kg i.v., 5 min, listed as prodrug 1a, 1 mg/kg): ≤ LLoQ
2 | CCOC(=O)CN1C(=O)COc2cc(C)c(Cl)c(C)c21 [1b] | 68.4214 | 59.9856 | 60.5407 | inhibit riboflavin uptake; also recorded: higher inhibition | 59.4089 | 74.4694 | 63.9701 |  |  |  |  | Mean intrinsic clearance [3]: > 50 mL/min/g liver
3 | Cc1cc2c(c(C)c1Cl)N(CC(=O)OC(C)C)C(=O)CO2 [1c] | 59.0947 | 60.924 | 73.4972 | inhibit riboflavin uptake | 60.7763 | 66.3048 | 65.3995 | ≤ LLoQ |  |  |  | 
4 | Cc1cc2c(c(C)c1Cl)N(Cc1nn[nH]n1)C(=O)CO2 [1h, 6-chloro-5,7-dimethyl-4-(2H-tetrazol-5-ylmethyl)-1,4-benzoxazin-3-one] |  |  |  |  |  |  |  | ≤ LLoQ |  |  |  | Reduction rate of flavin cofactor [4]: 0.09 ± 0.001 s⁻¹; Blood levels lower than those observed for 1 ([1]; mouse, 1 mg/kg i.v.): ~ 50%; Brain penetrance (in words) ([1]; mouse, 1 mg/kg i.v.): very limited brain penetrance; In blood ([1]; mouse, 1 mg/kg i.v., 60 min): ≤ LLoQ
5 | Cc1cc2c(c(C)c1Cl)N(CC(=O)O)C(=O)CO2 [compound 1, (6-chloro-5,7-dimethyl-3-oxo-2,3-dihydro-4H-1,4-benzoxazin-4-yl) acetic acid] | 57.8501 | 68.195 | 76.5831 | inhibit riboflavin uptake | 58.5977 | 60.0072 | 67.7034 | ≤ LLoQ | 193 (≈ 52 µg/mL) | 191 (≈ 51.5 µg/mL) | 194 (≈ 52.3 µg/mL) | Reduction rate of flavin cofactor [4]: 0.13 ± 0.005 s⁻¹; Stimulation of KMO reduction by NADPH ([4]; rapid mixing stopped-flow assays): do not stimulate; concentration at 5 min ([1]; C57BL6, mouse, whole blood, iv, female C57BL/6 mice, 1 mg/kg i.v. bolus, 5 min, read-out: Level in the blood (mean)): 3780 ± 639 ng/mL; Brain penetrance (in words) ([1]; mouse, 1 mg/kg i.v.): Minimal brain penetrance; Kinetic solubility (in words) [5]: good; Mean intrinsic clearance [3]: 0.8 mL/min/g liver
6 | Oc1ccc(-c2csc3nc(-c4ccccc4)nn23)c(O)c1 [compound 3, 4-(2-phenyl[1,2,4]triazolo[5,1-b][1,3]thiazol-6-yl)benzene-1,3-diol] |  |  |  |  |  |  |  |  | 67 (≈ 20.7 µg/mL) | 68 (≈ 21 µg/mL) | 65 (≈ 20.1 µg/mL) | 
7 | Cn1c(C(=O)N[C@@H](C(=O)O)c2ccccc2)cc2cc(F)ccc21 [compound 5, (R)-2-(5-fluoro-1-methyl-1H-indole-2-carboxamido)-2-phenylacetic acid] |  |  |  |  |  |  |  |  | 185 (≈ 60.4 µg/mL) | 186 (≈ 60.7 µg/mL) | 183 (≈ 59.7 µg/mL) | 
8 | CC(CSc1ccc(Cl)cc1)C(=O)O (stereo not shown) [compound 6, 3-[(4-chlorophenyl)thio]-2-methylpropanoic acid] |  |  |  |  |  |  |  |  | 187 (≈ 43.1 µg/mL) | 186 (≈ 42.9 µg/mL) | 188 (≈ 43.4 µg/mL) | 
